Measured values taken from publication PMC2860192 (ACS chemical neuroscience, 2010).

Experiments:
Assay type in all cases: cell-based
[1] = molecular target: T1, GluR3 (GluR3o, flop variant), homomeric AMPA-type receptor (Rattus norvegicus, UniProt P19492); experiment: two-electrode voltage clamp, Xenopus oocytes, block of kainate current
[2] = molecular target: GluR6 (GluR6(R), edited version), homomeric KA-type receptor (Rattus norvegicus, UniProt P42260, Q621R); experiment: as above
[3] = system: metabotropic glutamate receptors (mGluRs, group I) expressed by rat brain mRNA; details: antagonist test, 10 μM quisqualate in the cerebellum mRNA test
[4] = system: AMPA receptors expressed by rat cerebral cortex mRNA; experiment: two-electrode voltage clamp, Xenopus oocytes, block of kainate current; details: competitive antagonist; 100 μM kainate; −80 mV; pH 7.4; 19–21°C
[5] = molecular target: T1, GluR3 (GluR3o, flop variant), homomeric AMPA-type receptor; experiment: two-electrode voltage clamp, Xenopus oocytes, agonist-evoked current; details: 100 μM, −80 mV, pH 7.4

Chain of GluR6 (GluR6(R), edited version), homomeric KA-type receptor (P42260 32-908 Q621R): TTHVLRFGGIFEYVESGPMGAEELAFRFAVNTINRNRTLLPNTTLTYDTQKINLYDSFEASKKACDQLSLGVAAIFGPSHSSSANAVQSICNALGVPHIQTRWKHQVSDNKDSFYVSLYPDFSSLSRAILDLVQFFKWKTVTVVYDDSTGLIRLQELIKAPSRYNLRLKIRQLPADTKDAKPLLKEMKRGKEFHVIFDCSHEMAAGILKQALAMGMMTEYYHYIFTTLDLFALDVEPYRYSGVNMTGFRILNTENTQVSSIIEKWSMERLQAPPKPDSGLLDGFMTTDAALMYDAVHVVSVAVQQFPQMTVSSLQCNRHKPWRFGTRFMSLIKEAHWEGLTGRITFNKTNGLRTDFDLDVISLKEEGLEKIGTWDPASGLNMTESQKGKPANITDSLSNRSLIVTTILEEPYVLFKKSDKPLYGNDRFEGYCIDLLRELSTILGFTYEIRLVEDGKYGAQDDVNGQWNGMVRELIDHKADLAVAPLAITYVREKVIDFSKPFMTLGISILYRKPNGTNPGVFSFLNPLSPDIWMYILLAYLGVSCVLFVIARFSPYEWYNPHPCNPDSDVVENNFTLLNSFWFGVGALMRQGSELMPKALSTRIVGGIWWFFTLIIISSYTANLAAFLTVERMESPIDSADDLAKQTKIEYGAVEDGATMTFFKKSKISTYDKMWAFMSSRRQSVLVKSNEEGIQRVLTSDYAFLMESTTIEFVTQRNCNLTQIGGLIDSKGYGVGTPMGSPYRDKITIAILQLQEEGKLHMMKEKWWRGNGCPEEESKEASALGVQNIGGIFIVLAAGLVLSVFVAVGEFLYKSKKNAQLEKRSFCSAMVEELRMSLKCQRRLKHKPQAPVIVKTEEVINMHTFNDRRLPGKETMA

Row | IC50 [1] [nM] | IC50 [2] [nM] | IC50 [3] [nM] | IC50 [4] [nM] | SMILES | two-electrode voltage clamp, Xenopus oocytes, agonist-evoked current [5]
1 | 502 ± 55 | ~100000 | > 100000 | 242 ± 37 | N[C@@H](C(=O)O)[C@H](O)[C@@]1(C(=O)O)CC[C@H](C[C@H](NC(=O)c2cc(Cl)c(O)c(Cl)c2)C(=O)O)N1 [(−)-kaitocephalin] | 
2 |  |  |  |  | C=C(C)[C@H]1CN[C@H](C(=O)O)[C@H]1CC(=O)O [kainate] | GluR3 receptors, similarly to the AMPA receptors expressed by mRNA, generated large KA-currents
